Test results published in EP4782448A1, “SUBSTITUTED PYRIDOTRIAZOLE COMPOUND, AND PREPARATION METHOD THEREFOR AND USE THEREOF” (Origiant Pharmaceutical Co., Ltd., priority 2023, dated 2025).

Tested on: HT-29 cells
Assay: In vitro assay for protection of HT-29 cells from necroptosis (TNFα/Smac mimetic/Z-VAD-FMK induction, CCK8 readout)
Format: cell-based
Conditions: TNFα/Smac mimetic/Z-VAD-FMK for 24 h; inhibition of necroptosis; read-out: HT-29 (EC50)

SMILES	EC50 [nM]
CN1CCN(C(=O)Nc2nc3cc(-c4ccc5c(c4)c(C(=O)N[C@@H](CF)c4ccc(F)cc4)cn5C)ccn3n2)CC1 [Compound 95]	< 1
Cn1cc(C(=O)N[C@@H](CF)c2ccc(F)cc2)c2cc(-c3ccn4nc(NC(=O)CN5CCCCC5)nc4c3)ccc21 [Compound 96]	< 1
COCC(=O)Nc1nc2cc(-c3ccc4c(c3)c(C(=O)N[C@@H](CF)c3ccc(F)cc3)cn4C)ccn2n1 [Compound 97]	< 1
CO[C@@H](C)C(=O)Nc1nc2cc(-c3ccc4c(c3)c(C(=O)N[C@@H](CF)c3ccc(F)cc3)cn4C)ccn2n1 [Compound 98]	< 1
CC(C)Nc1nc2cc(-c3ccc4c(c3)c(C(=O)N[C@@H](CF)c3ccc(F)cc3)cn4C)ccn2n1 [Compound 99]	< 1
CN1CC[C@@H](C(=O)Nc2nc3cc(-c4ccc5c(c4)c(C(=O)N[C@@H](CF)c4ccc(F)cc4)cn5C)ccn3n2)C1 [Compound 100]	< 1
CN(C)CC(=O)Nc1nc2cc(-c3ccc4c(c3)c(C(=O)N[C@@H](CF)c3ccc(F)cc3)cn4C)ccn2n1 [Compound 101]	< 1
Cn1cc(C(=O)N[C@@H](CF)c2ccc(F)cc2)c2cc(-c3ccn4nc(NC(=O)C#N)nc4c3)ccc21 [Compound 102]	< 1
Cn1cc(C(=O)N[C@@H](CF)c2ccc(F)cc2)c2cc(-c3ccn4nc(NC(=O)N5CCOCC5)nc4c3)ccc21 [Compound 103]	< 1
Cn1cc(C(=O)N[C@@H](CF)c2ccc(F)cc2)c2cc(-c3ccn4nc(NC(=O)[C@H]5CCCO5)nc4c3)ccc21 [Compound 104]	1000 to 10000
Cn1cc(C(=O)N[C@@H](CF)c2ccc(F)cc2)c2cc(-c3ccn4nc(NC(=O)C5(C)CCC5)nc4c3)ccc21 [Compound 105]	10 to 100
C[C@H](NC(=O)c1cn(C)c2ccc(-c3ccn4nc(NC5CCOC5)nc4c3)cc12)c1ccc(F)cc1 (stereo partly shown) [Compound 107]	< 1
Cn1cc(C(=O)N[C@@H](CF)c2ccc(F)cc2)c2cc(-c3ccn4nc(NCC5CC5)nc4c3)ccc21 [Compound 108]	< 1
Cn1cc(C(=O)N[C@@H](CF)c2ccc(F)cc2)c2cc(-c3ccn4nc(NC(=O)C5CCOC5)nc4c3)ccc21 (stereo partly shown) [Compound 109]	1 to 10
Cn1cc(C(=O)N[C@@H](CF)c2ccc(F)cc2)c2cc(-c3ccn4nc(NC(=O)C5CC5(F)F)nc4c3)ccc21 (stereo partly shown) [Compound 110]	< 1
Cn1cc(C(=O)Nc2nc3cc(-c4ccc5c(c4)c(C(=O)N[C@@H](CF)c4ccc(F)cc4)cn5C)ccn3n2)cn1 [Compound 111]	1 to 10
COC(C)C(=O)Nc1nc2cc(-c3ccc4c(c3)c(C(=O)N[C@@H](CF)c3ccc(F)cc3)cn4C)ccn2n1 (stereo partly shown) [Compound 112]	< 1
Cn1cc(C(=O)N[C@@H](CF)c2ccc(F)cc2)c2cc(-c3ccn4nc(NC(=O)C5CC5F)nc4c3)ccc21 (stereo partly shown) [Compound 113]	1 to 10
Cn1cc(C(=O)N[C@@H](CF)c2ccc(F)cc2)c2cc(-c3ccn4nc(NC(=O)C5CC5)nc4c3)ccc21 [Compound 114]	< 1
C[C@H](NC(=O)c1cn(C)c2ccc(-c3ccn4nc(NC(=O)c5ccnc(F)c5)nc4c3)cc12)c1ccc(F)cc1 [Compound 115]	< 1
C[C@H](NC(=O)c1cn(C)c2ccc(-c3ccn4nc(NC(=O)N5CCOCC5)nc4c3)cc12)c1ccc(F)cc1 [Compound 116]	< 1
C[C@H](NC(=O)c1cn(C)c2ccc(-c3ccn4nc(NC(=O)[C@H]5CCCO5)nc4c3)cc12)c1ccc(F)cc1 [Compound 117]	< 1

SMILES	EC50 [nM]
C[C@H](NC(=O)c1cn(C)c2ccc(-c3ccn4nc(NC(=O)N5CCOCC5)nc4c3)cc12)c1cccc(F)c1 [Compound 118]	< 1
C[C@H](NC(=O)c1cn(C)c2ccc(-c3ccn4nc(NC(=O)[C@H]5CCCO5)nc4c3)cc12)c1cccc(F)c1 [Compound 119]	< 1
C[C@H](NC(=O)c1cn(C)c2ccc(-c3ccn4nc(NC(=O)c5cnn(C)c5)nc4c3)cc12)c1cccc(F)c1 [Compound 120]	< 1
CN(C)CC(=O)Nc1nc2cc(-c3ccc4c(c3)c(C(=O)N[C@H]3CCc5ccc(F)cc53)cn4C)ccn2n1 [Compound 123]	1 to 10
CC(=O)Nc1nc2cc(-c3ccc4c(c3)c(C(=O)N[C@@H]3C[C@H]3c3ccc(F)c(F)c3)cn4C)ccn2n1 [Compound 125]	1000 to 10000
CC(=O)Nc1nc2cc(-c3ccc4c(c3)c(C(=O)N[C@H]3CCc5cc(C#N)ccc53)cn4C)ccn2n1 [Compound 132]	100 to 1000
Cn1cc(C(=O)N[C@H]2CCCc3cc(F)ccc32)c2cc(-c3ccn4nc(NC(=O)[C@H]5CCCO5)nc4c3)ccc21 [Compound 137]	10 to 100
Cn1cc(C(=O)N[C@H]2CCCc3cc(F)ccc32)c2cc(-c3ccn4nc(NC(=O)[C@@H]5CCCO5)nc4c3)ccc21 [Compound 139]	1 to 10
Cn1cc(C(=O)Nc2nc3cc(-c4ccc5c(c4)c(C(=O)N[C@H]4CCCc6cc(F)ccc64)cn5C)ccn3n2)cn1 [Compound 141]	1 to 10
Cn1cc(C(=O)N[C@H]2CCCc3cc(F)ccc32)c2cc(-c3ccn4nc(NC(=O)CC#N)nc4c3)ccc21 [Compound 142]	10 to 100
Cn1cc(C(=O)Nc2nc3cc(-c4ccc5c(c4)c(C(=O)N[C@H]4CCCc6ccc(F)cc64)cn5C)ccn3n2)cn1 [Compound 143]	1 to 10
CC(=O)Nc1nc2cc(-c3ccc4c(c3)c(C(=O)N[C@H]3CCCc5ccc(F)cc53)cn4C)ccn2n1 [Compound 145]	1 to 10
Cn1cc(C(=O)N[C@H]2CCCc3ccc(F)cc32)c2cc(-c3ccn4nc(NC(=O)[C@H]5CCCO5)nc4c3)ccc21 [Compound 146]	10 to 100
Cn1cc(C(=O)NC2(c3ccc(F)cc3)COC2)c2cc(-c3ccn4nc(NC(=O)C5CC5)nc4c3)ccc21 [Compound 148]	10 to 100
Cn1cc(C(=O)Nc2nc3cc(-c4ccc5c(c4)c(C(=O)N4CCOC[C@@H]4c4ccc(F)cc4)cn5C)ccn3n2)cn1 [Compound 149]	< 1
Cn1cc(C(=O)N2CCOC[C@@H]2c2ccc(F)cc2)c2cc(-c3ccn4nc(NC(=O)C5CC5)nc4c3)ccc21 [Compound 151]	< 1
Cn1cc(C(=O)N2CCC[C@H]2c2ccc(F)cc2)c2cc(-c3ccn4nc(NC(=O)N5CCOCC5)nc4c3)ccc21 [Compound 153]	< 1
Cn1cc(C(=O)N2CCC[C@H]2c2ccc(F)cc2)c2cc(-c3ccn4nc(NC(=O)C5CCCO5)nc4c3)ccc21 (stereo partly shown) [Compound 154]	< 1
Cn1cc(C(=O)Nc2nc3cc(-c4ccc5c(c4)c(C(=O)N[C@@H](CF)c4cccc(F)c4)cn5C)ccn3n2)cn1 [Compound 155]	< 1
Cn1cc(C(=O)N2CC(F)(F)CC2c2ccc(F)cc2)c2cc(-c3ccn4nc(NC(=O)C5CC5)nc4c3)ccc21 (stereo not shown) [Compound 158]	1000 to 10000
Cn1cc(C(=O)N2CC(F)(F)CC2c2ccc(F)cc2)c2cc(-c3ccn4nc(NC(=O)C5CCOC5)nc4c3)ccc21 (stereo not shown) [Compound 159]	< 1
Cn1cc(C(=O)N2CC(F)(F)CC2c2ccc(F)cc2)c2cc(-c3ccn4nc(NC(=O)N5CCOCC5)nc4c3)ccc21 (stereo not shown) [Compound 160]	< 1

SMILES	EC50 [nM]
Cn1cc(C(=O)N[C@H](c2ccc(F)cc2)C(F)F)c2cc(-c3ccn4nc(NC(=O)CN5CCCCC5)nc4c3)ccc21 [Compound 163]	< 1
Cn1cc(C(=O)N[C@H](c2ccc(F)cc2)C(F)F)c2cc(-c3ccn4nc(NC(=O)CC#N)nc4c3)ccc21 [Compound 164]	< 1
CO[C@@H](C)C(=O)Nc1nc2cc(-c3ccc4c(c3)c(C(=O)N[C@H](c3ccc(F)cc3)C(F)F)cn4C)ccn2n1 [Compound 165]	< 1
COCC(=O)Nc1nc2cc(-c3ccc4c(c3)c(C(=O)N[C@H](c3ccc(F)cc3)C(F)F)cn4C)ccn2n1 [Compound 166]	< 1
CN(C)CC(=O)Nc1nc2cc(-c3ccc4c(c3)c(C(=O)N[C@H](c3ccc(F)cc3)C(F)F)cn4C)ccn2n1 [Compound 167]	< 1
CN1CCC(C(=O)Nc2nc3cc(-c4ccc5c(c4)c(C(=O)N[C@H](c4ccc(F)cc4)C(F)F)cn5C)ccn3n2)C1 (stereo partly shown) [Compound 168]	< 1
Cn1cc(C(=O)N2N=CCC2c2ccc(F)cc2)c2cc(-c3ccn4nc(NC(=O)C5CCOC5)nc4c3)ccc21 (stereo not shown) [Compound 169]	< 1
Cn1cc(C(=O)N2N=CCC2c2ccc(F)cc2)c2cc(-c3ccn4nc(NC(=O)C5CC5)nc4c3)ccc21 (stereo not shown) [Compound 170]	< 1
Cn1cc(C(=O)Nc2nc3cc(-c4ccc5c(c4)c(C(=O)N4N=CCC4c4ccc(F)cc4)cn5C)ccn3n2)cn1 (stereo not shown) [Compound 171]	1 to 10
Cn1cc(C(=O)N2N=CCC2c2ccc(F)cc2)c2cc(-c3ccn4nc(NC(=O)N5CCOCC5)nc4c3)ccc21 (stereo not shown) [Compound 172]	1 to 10
CC(C(=O)Nc1cn(C)c2ccc(-c3ccn4nc(NC(=O)C5CC5)nc4c3)cc12)c1ccc(F)cc1 (stereo not shown) [Compound 177]	10 to 100
CC(C(=O)Nc1cn(C)c2ccc(-c3ccn4nc(NC(=O)[C@H]5CCCO5)nc4c3)cc12)c1ccc(F)cc1 (stereo partly shown) [Compound 178]	100 to 1000
CC(C(=O)Nc1cn(C)c2ccc(-c3ccn4nc(NC(=O)[C@H]5CCCO5)nc4c3)cc12)c1ccc(F)cc1 (stereo partly shown) [Compound 179]	100 to 1000
CC(C(=O)Nc1nn(C)c2ccc(-c3ccn4nc(NC(=O)CN(C)C)nc4c3)cc12)c1ccc(F)cc1 (stereo not shown) [Compound 180]	1000 to 10000
CC(C(=O)Nc1nn(C)c2ccc(-c3ccn4nc(NC(=O)c5cnn(C)c5)nc4c3)cc12)c1ccc(F)cc1 (stereo not shown) [Compound 181]	1000 to 10000
Cn1cc(C(=O)N[C@@H](CF)c2cccc(F)c2)c2cc(-c3ccn4nc(NC(=O)[C@H]5CCCO5)nc4c3)ccc21 [Compound 183]	< 1
Cn1cc(C(=O)N[C@@H]2C[C@H]2c2ccc(F)c(F)c2)c2cc(-c3ccn4nc(NC(=O)[C@H]5CCCO5)nc4c3)ccc21 [Compound 184]	100 to 1000
Cn1cc(C(=O)N2CCC[C@H]2c2ccc(F)cc2)c2cc(-c3ccn4nc(NC(=O)C5CCOC5)nc4c3)ccc21 (stereo partly shown) [Compound 186]	< 1
Cn1cc(C(=O)Nc2nc3cc(-c4ccc5c(c4)c(C(=O)N[C@@H](CF)c4ccc(F)cc4)nn5C)ccn3n2)cn1 [Compound 187]	< 1
Cn1nc(C(=O)N[C@@H](CF)c2ccc(F)cc2)c2cc(-c3ccn4nc(NC(=O)C5CCOC5)nc4c3)ccc21 (stereo partly shown) [Compound 188]	< 1
